Data as given in patent US20150065456A1, “AGENT FOR TREATMENT AND PREVENTION OF CANCER” (Daiichi Sankyo Company, Limited, priority 2013, published 2015).
Read-outs that look alike come from different tables or passages of the source.

Columns and labels:
[1] = system: subjects with symptomatic venous thromboembolism (VTE); assay: Hokusai VTE phase 3 clinical study: investigator-reported malignancies clinically evident post-randomization; assay type: in vivo, human; details: for All Subjects with a Malignancy Event, HR: edoxaban vs warfarin, Cox proportional hazards model
Protocol: The study was a randomized, double-blind, clinical study, in which subjects with symptomatic venous thromboembolism (VTE), which included PE, with or without deep venous thrombosis (DVT), or DVT only, were treated with either edoxaban or warfarin, a Vitamin K antagonist, which is an indirect inhibitor of coagulation. […] The subjects participating in the study were adult male and female patients presenting with acute, symptomatic DVT involving popliteal, femoral, or ileac veins, or PE requiring anti-thrombotic therapy. Patients with various types of cancer were among the subjects who were treated in this study, so long as long term treatment with heparin was not anticipated as a treatment regimen for such patients. This clinical study is named Hokusai-VTE and is the largest single phase 3 clinical study in the treatment and prevention of recurrence of VTE using an FXa inhibitor such as edoxaban. More than 8,250 patients were enrolled in the study from more than 400 clinical sites across 38 countries worldwide. The Hokusai-VTE clinical study was designed to reflect clinical practice, using a standard heparin lead-in and providing a flexible treatment duration of three, six or twelve months. This study design allowed the evaluation of patients with a broad range of risks, including patients with moderate or severe conditions of PE and DVT. […] (See, Example 1, infra).
The study (Hokusai VTE Clinical Study) constituted a phase 3, randomized, double-blind, double-dummy, parallel-group, multi-center, multi-national study for the evaluation of efficacy and safety of (LMW) heparin/edoxaban versus (LMW) heparin/warfarin in subjects with symptomatic deep-vein thrombosis and/or pulmonary embolism. The study indication related to the reduction of the risk of symptomatic recurrent venous thromboembolic complications in patients with acute symptomatic deep vein thrombosis (DVT) and/or pulmonary embolism (PE). […] Accordingly, the nature of the study was the use of edoxaban as direct inhibitor of Factor Xa in the treatment of VTE.
Following stratification and treatment allocation as described above, all patients were randomized to either a standard of care (SOC) treatment regimen, i.e., heparin+warfarin, until the international normalized ratio (INR) was between 2-3, followed by warfarin alone; or an edoxaban treatment regimen, i.e., heparin for 5 days followed by edoxaban (as the free base) at a dose of 60-mg QD (or 30-mg QD, in the low exposure group). This study aimed to treat all patients for the entire 12 month period following randomization. Ultimately, the evolving nature of the patient's clinical status and changes in the risk/benefit over time determined the length of treatment for a given patient. Irrespective of actual treatment duration, all patients were followed for the entire 12 months after randomization.
Edoxaban was administered in 30 and 60 mg dose-strengths in tablet form. Warfarin was administered in 1, 2.5 and 5 mg dose-strengths. Matching placebos were used for each of the test drugs. Edoxaban and warfarin were administered orally (PO). Enoxaparin was administered by subcutaneous (SC) injection.
The study was an event-driven, Phase 3, multi-national, multi-center, randomized, double-blind, matching placebo, parallel-group non-inferiority study for efficacy. The total study period after randomization was 12 months in duration. Ideally, all subjects remained on study treatment throughout this period. However, mitigating factors related to the subject's clinical status could influence the total duration of treatment a given subject actually received (See, Treatment Arms, below). Nevertheless, all subjects were administered a minimum of three months' treatment consistent with current ACCP Guidelines.

[2] = rats; cited from earlier work
[3] = monkeys; cited from earlier work
[4] = cited from earlier work
[5] = Overall Study Period (up to 12 months)

SMILES: CC(=O)CC(c1ccccc1)c1c(O)c2ccccc2oc1=O (stereo not drawn) [Warfarin, warfarin, reference compound]
- All Subjects with a Malignancy Event, (%) ([1]; On-Treatment Study Period): 2.2%
- Leukemia, Lymphoma, and Other Blood Malignancies, (%) ([1]; On-Treatment Study Period): 0.1%
- Malignancy diagnosed as a result of work-up for anemia or bleeding: No, (%) ([1]; On-Treatment Study Period): 1.9%
- Malignancy diagnosed as a result of work-up for anemia or bleeding: Yes, (%) ([1]; On-Treatment Study Period): 0.2%
- Solid Tumor, (%) ([1]; On-Treatment Study Period): 2.0%
- All Subjects with a Malignancy Event, (%) [1, 5]: 3.3%
- Leukemia, Lymphoma, and Other Blood Malignancies, (%) [1, 5]: 0.2%
- Malignancy diagnosed as a result of work-up for anemia or bleeding: No, (%) [1, 5]: 2.8%
- Malignancy diagnosed as a result of work-up for anemia or bleeding: Yes, (%) [1, 5]: 0.5%
- Solid Tumor, (%) [1, 5]: 3.1%
- All Subjects with a Malignancy Event, (%) ([1]; Treatment+30 Days Study Period): 2.9%
- Leukemia, Lymphoma, and Other Blood Malignancies, (%) ([1]; Treatment+30 Days Study Period): 0.2%
- Malignancy diagnosed as a result of work-up for anemia or bleeding: No, (%) ([1]; Treatment+30 Days Study Period): 2.4%
- Malignancy diagnosed as a result of work-up for anemia or bleeding: Yes, (%) ([1]; Treatment+30 Days Study Period): 0.5%
- Solid Tumor, (%) ([1]; Treatment+30 Days Study Period): 2.6%

SMILES: CN1CCc2nc(C(=O)N[C@@H]3C[C@@H](C(=O)N(C)C)CC[C@@H]3NC(=O)C(=O)Nc3ccc(Cl)cn3)sc2C1 [Edoxaban]
- Kaplan-Meier cumulative incidence (%) of new or recurrent malignancies versus warfarin-treated subjects ([1]; FIG. 1, treatment +30 days study period, 390 days from initial study drug administration): significant decrease
- Kaplan-Meier cumulative incidence (%) of new or recurrent malignancies versus warfarin-treated subjects ([1]; FIG. 2, overall study period, about 360 days from initial study drug administration): significant decrease
- All Subjects with a Malignancy Event, (%) ([1]; On-Treatment Study Period): (1.6) %
- Leukemia, Lymphoma, and Other Blood Malignancies, (%) ([1]; On-Treatment Study Period): (<0.1) %
- Malignancy diagnosed as a result of work-up for anemia or bleeding: No, (%) ([1]; On-Treatment Study Period): (1.4) %
- Malignancy diagnosed as a result of work-up for anemia or bleeding: Yes, (%) ([1]; On-Treatment Study Period): (0.2) %
- Solid Tumor, (%) ([1]; On-Treatment Study Period): (1.5) %
- All Subjects with a Malignancy Event, HR ([1]; On-Treatment Study Period): 0.73
- All Subjects with a Malignancy Event, (%) [1, 5]: (2.8) %
- Leukemia, Lymphoma, and Other Blood Malignancies, (%) [1, 5]: (0.2) %
- Malignancy diagnosed as a result of work-up for anemia or bleeding: No, (%) [1, 5]: (2.2) %
- Malignancy diagnosed as a result of work-up for anemia or bleeding: Yes, (%) [1, 5]: (0.6) %
- Solid Tumor, (%) [1, 5]: (2.7) %
- All Subjects with a Malignancy Event, HR ([1]; Overall Study Period): 0.85
- All Subjects with a Malignancy Event, (%) ([1]; Treatment+30 Days Study Period): (2.4) %
- Leukemia, Lymphoma, and Other Blood Malignancies, (%) ([1]; Treatment+30 Days Study Period): (0.1) %
- Malignancy diagnosed as a result of work-up for anemia or bleeding: No, (%) ([1]; Treatment+30 Days Study Period): (1.8) %
- Malignancy diagnosed as a result of work-up for anemia or bleeding: Yes, (%) ([1]; Treatment+30 Days Study Period): (0.6) %
- Solid Tumor, (%) ([1]; Treatment+30 Days Study Period): (2.3) %
- All Subjects with a Malignancy Event, HR ([1]; Treatment+30 Days Study Period): 0.84
- oral bioavailability [2]: orally bioavailable
- oral bioavailability [3]: orally bioavailable
- safety and tolerability ([4]; doses of up to 90-mg per day): generally safe and well tolerated
- oral bioavailability ([4]; human subjects): orally bioavailable
